Values of other authors, collected in patent publication US20070264370A1, “Composition and methods for the treatment of joint pain using Angelica gigas Nakai extract and powder as combined with Glucosamine Sulfate, or Chondroitin Sulfate and HCL, or MSM, or aspirin, or Celedrin, and as combinations thereof in powder, pill, capsule, spray, liquid, and gelcap form” (priority 2006, published 2007).

Conditions: in mammal; oral administration in rats (Kim et al. 2003)

elimination half life (T1/2): about 3 hours
Structure (SMILES): CC1(C)Oc2cc3oc(=O)ccc3cc2C[C@@H]1O [decursinol, Decursinol]
